Each structure is given as a SMILES string.

The test concerns the target T1, TXA2 receptors (Homo sapiens, UniProt P21731).
T1 construct: to Washed Human Platelets; endogenous in cells; host or cells: washed human platelets
T1 sequence (P21731 1-343): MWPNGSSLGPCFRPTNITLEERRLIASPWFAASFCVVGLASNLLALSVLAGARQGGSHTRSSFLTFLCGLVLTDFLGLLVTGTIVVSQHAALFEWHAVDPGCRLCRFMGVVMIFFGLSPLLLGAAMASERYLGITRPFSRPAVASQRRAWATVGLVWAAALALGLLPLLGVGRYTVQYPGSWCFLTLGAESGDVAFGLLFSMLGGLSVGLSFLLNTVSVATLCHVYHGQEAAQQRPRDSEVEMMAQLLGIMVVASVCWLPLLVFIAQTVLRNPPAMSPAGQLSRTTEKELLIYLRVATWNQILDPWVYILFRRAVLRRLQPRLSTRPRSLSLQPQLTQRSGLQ
Nature of the test: Human platelet binding assay: inhibition of [^125 I]PTA-OH binding to washed human platelets. The following applies: [^125 I]PTA-OH as receptor ligand, 50% inhibition of specific binding. An excerpt:
As indicated above, compounds of the formula (I) have biological activity that is indicative of an ability to antagonise TXA2 receptors.
The platelet binding assay used was essentially the method described by Mais et al, J. Pharm. Exp. Ther., 1985, 235(3), 729-734 where [^125 I]PTA-OH was used as the receptor ligand.
The IC50 values represent the concentration which produces a 50% inhibition of specific [^125 I]PTA-OH binding.
The activities of the compounds of the present invention in the assay are described in Example 33.
Inhibition of [^125 I]PTA-OH Binding
to Washed Human Platelets
Molecule `O=C(O)CCCCCCCCNS(=O)(=O)c1ccccc1` [Example 7, 9-(Benzenesulphonamido)nonanoic Acid] registered an IC50 of 0.28 µM.
Then `CC(C)(CCCCCCCNS(=O)(=O)c1ccc(Cl)cc1)C(=O)O` [Example 30, 9-(4-Chlorophenylsulphonamido)-2,2-dimethylnonanoic Acid], with 0.36 µM; and `CC(C)(CCCCCCNS(=O)(=O)c1ccc(Cl)cc1)C(=O)O` [Example 5, 8-(4-Chlorobenzenesulphonamido)-2,2-dimethyloctanoic Acid], with 0.15 µM.
Then `O=C(O)CCCC#CCNS(=O)(=O)c1ccc(Cl)cc1` [Example 8, 7-(4-Chlorobenzenesulphonamido)hept-5-ynoic Acid], with 5.4 µM; and `O=C(O)CCCCCCCNS(=O)(=O)c1ccc([N+](=O)[O-])cc1` [Example 15, 8-(4-Nitrobenzenesulphonamido)octanoic Acid], with 0.11 µM; and `Cc1ccc(S(=O)(=O)NCCCCCCCC(=O)O)cc1` [Example 21, 8-(4-tolylsulphonamido)octanoic acid], with 0.075 µM.
Then `O=C(O)CCCCCCCCNS(=O)(=O)c1cccc(Cl)c1` [Example 23, 9-(3-Chlorobenzenesulphonamido)nonanoic Acid], with 0.25 µM; and `O=C(O)CCCCCCCNS(=O)(=O)c1ccccc1` [Example 2, 8-(Benzenesulphonamido)octanoic Acid], with 0.29 µM.
On to `O=C(O)CCCCCCCCNS(=O)(=O)c1ccc(Br)cc1` [Example 26, 9-(4-Bromobenzenesulphonamido)nonanoic Acid], for which the IC50 was 0.04 µM.
Then `O=C(O)CCCCCCCNS(=O)(=O)c1ccc(Cl)c(Cl)c1` [Example 18, 8-(3,4-Dichlorobenzenesulphonamido)octanoic Acid], with 0.07 µM; and `O=C(O)CCCCCCCCCCNS(=O)(=O)c1ccc(Cl)cc1` [Example 19, 11-(4-Chlorobenzenesulphonamido)undecanoic Acid], with 0.6 µM.
With `O=C(O)CCCCCNS(=O)(=O)c1ccccc1` [Example 4, 6-(Benzenesulphonamido)hexanoic Acid], the IC50 came to 61 µM.
As for `O=C(O)CCCCCCCCCCNS(=O)(=O)c1cccc(Cl)c1` [Example 20, 11-(3-Chlorobenzenesulphonamido)undecanoic Acid], the figure is 1.9 µM.
In turn, `O=C(O)CCCCCCCNS(=O)(=O)c1cccc(Cl)c1` [Example 14, 8-(3-Chlorobenzenesulphonamido)octanoic Acid] returned an IC50 of 0.16 µM.
As to `COc1ccc(S(=O)(=O)NCCCCCCCC(=O)O)cc1` [Example 17, 8-(4-Methoxybenzenesulphonamido)octanoic Acid], the IC50 is 0.3 µM.
As for `O=C(O)CCCCCCCCCNS(=O)(=O)c1ccc(Cl)cc1` [Example 24, 10-(4-Chlorobenzenesulphonamido)decanoic Acid], the figure is 0.06 µM; as for `CC(C)(CCCCCNS(=O)(=O)c1ccc(Cl)cc1)C(=O)O` [Example 31, 7-(4-Chlorophenylsulphonamido)-2,2-dimethylheptanoic Acid], 0.33 µM.
For `O=C(O)CCCCCCCNS(=O)(=O)c1ccc(F)cc1` [Example 25, 8(4-Fluorobenzenesulphonamido)octanoic Acid], the concentration for half-maximal inhibition (IC50) was 0.22 µM.
Then `O=C(O)CCC/C=C\CNS(=O)(=O)c1ccc(Cl)cc1` [Example 9, (Z)-7-(4-Chlorobenzenesulphonamido)hept-5-enoic Acid], with 1.6 µM; and `O=C(O)CCCCCCCNS(=O)(=O)c1cc(Cl)sc1Cl` [Example 32, 8-(2,5-Dichloro-3-thienylsulphonamido)octanoic Acid], with 0.65 µM.
Then `CC(C)(CCCCCCCCNS(=O)(=O)c1ccc(Cl)cc1)C(=O)O` [Example 10, 2,2-Dimethyl-10-(4-chlorobenzenesulphonamido)decanoic Acid], with 0.47 µM.
Then `CC(C)(CCCCCNS(=O)(=O)c1ccc(Cl)cc1)CC(=O)O` [Example 12, 8-(4-Chlorobenzenesulphonamido)-3,3-dimethyloctanoic Acid], with 0.6 µM.
As for `O=C(O)CCCCCCCCCCCNS(=O)(=O)c1ccc(Cl)cc1` [Example 11, 12-(4-Chlorobenzenesulphonamido)-dedecanoic Acid], the IC50 turned out to be 7 µM.
Then `O=C(O)CCCCCCNS(=O)(=O)c1ccccc1` [Example 1, 7-(Benzenesulphonamido)heptanoic Acid], with 2.3 µM; and `O=C(O)CCCCCCCCNS(=O)(=O)c1ccc(Cl)cc1` [Example 6, 9-(4-Chlorobenzenesulphonamido)nonanoic Acid], with 0.018 µM.
The molecule `O=C(O)CCCCCCCNS(=O)(=O)c1ccc(Cl)s1` [Example 29, 8-(5-Chloro-2-thienylsulphonamido)octanoic Acid] returned an IC50 of 0.04 µM.
Then `O=C(O)CCCCCCCNS(=O)(=O)c1ccc(Cl)cc1` [Example 3, 8-(4-Chlorobenzenesulphonamido)octanoic Acid], with 0.03 µM; and `O=C(O)CCCCCCCNS(=O)(=O)c1ccc(Br)cc1` [Example 16, 8-(4-Bromobenzenesulphonamido)octanoic Acid], with 0.02 µM; and `O=C(O)CCCCCCNS(=O)(=O)c1ccc(Cl)cc1` [Example 13, 7-(4-Chlorobenzenesulphonamido)heptanoic Acid], with 0.27 µM.

The values above are taken from patent US4997847A, “Biologically active compounds” (Smith Kline & French Laboratories Limited, priority 1987, dated 1991).
